In this assay the test system is monoclonal antibody 1F3 (mAb 1F3). Briefly: indirect competitive ELISA against Tar-OVA coating antigen. It counts as binding, Mus musculus. In general terms: ELISA stands for enzyme-linked immunosorbent assay.

Usually IC50 stands for the concentration that inhibits the measured activity by half. A lower IC50 goes with inhibition by little substance. For the molecule `O=C(O)c1nn(-c2ccc(S(=O)(=O)O)cc2)c(O)c1/N=N/c1ccc(S(=O)(=O)O)cc1` [Tartrazine, trisodium 5-hydroxy-1-(4-sulfonatophenyl)-4-(4-sulfonatophenylazo)-H-pyrazol-3-carboxylate], the IC50 worked out at 0.105 ng/mL.

(Values after publication PMC3758588, “Development of an Ultrasensitive Immunoassay for Detecting Tartrazine” (Sensors (Basel, Switzerland), 2013).)
